Converted amounts (≈) assume the structure as drawn. “And” between values parts separate entries of the source, which are not always exact repeats. Identical values can stand only once.
How the values were obtained:
HPU = tested on: HPU; parameters: method as in PMID 26669678; conditions: cited from earlier work
JBU = tested on: JBU; parameters: method as in PMID 26669678; conditions: cited from earlier work
[1] = parameters: method as in PMID 23159469; conditions: among berberine, coptisine, palmatine and epiberberine; in vitro and in vivo assays; cited from earlier work
H. pylori ATCC 43504 = assay: MIC by agar dilution method; type: cell-based; conditions: Helicobacter pylori
Experimental: (§1) A total of four H. pylori strains were studied, including three reference strains ATCC 43504, NCTC 26695 and SS1 gifted from Professor Richard Ferrero, Monash University, Australia, and one clinical isolate ICDC 111001 obtained from Professor Zhang Jianzhong, Chinese Center of Disease Control and Prevention. […] The MICs of Pal against the four H. pylori strains were evaluated by using agar dilution method. […] H. pylori strains were harvested and resuspended in PBS (1.0–2.0 McFarland were defined based on the strain properties). […] After 72 h, the MIC values were determined as the lowest concentration at which there was no strain growth judged by visual examination. Metronidazole was used as the positive control. The experiments were evaluated under two different pH (7.4 and 5.3) conditions and repeated twice.

[2] = tested on: H. pylori ICDC 111001 (clinical isolate); assay: MIC by agar dilution method; type: cell-based; conditions: Helicobacter pylori
Experimental: as §1

H. pylori NCTC 26695 = assay: MIC by agar dilution method; type: cell-based; conditions: Helicobacter pylori
Experimental: as §1

H. pylori SS1 = assay: MIC by agar dilution method; type: cell-based; conditions: Helicobacter pylori
Experimental: as §1

H. pylori urease (HPU) = target: T1, H. pylori urease (HPU) (Helicobacter pylori, UniProt P69996); assay: biochemical; type: biochemical; conditions: Fig 4C HPU; BA or NaF 5 mM preincubated 20 min, Pal 0.5 mM 20 min
T1 construct: HPU was prepared as previously described; made in house
Experimental: (§2) For the protection with inorganic compounds (BA and NaF), 0.25 mg/mL urease (HPU or JBU) was preincubated with 5 mM BA or 5 mM NaF for 20 min. Following preincubation, each sample of the protected urease was incubated with 0.5 mM Pal for 20 min. The samples containing a proper volume of respective buffer instead of Pal served as comparison with the abovementioned systems. The experiments were triply performed.

jack bean urease (JBU) = target: T2, jack bean urease (JBU) (Canavalia ensiformis, UniProt P07374); assay: biochemical; type: biochemical; conditions: Fig 4D JBU; BA or NaF 5 mM preincubated 20 min, Pal 0.5 mM 20 min
T2 construct: Urease from jack bean (Canavalia ensiformis, JBU); purchased Sigma-Aldrich (St Louis, MO, USA) type III (catalogue number not given)
Experimental: as §2

T1 sequence (P14916 whole entry): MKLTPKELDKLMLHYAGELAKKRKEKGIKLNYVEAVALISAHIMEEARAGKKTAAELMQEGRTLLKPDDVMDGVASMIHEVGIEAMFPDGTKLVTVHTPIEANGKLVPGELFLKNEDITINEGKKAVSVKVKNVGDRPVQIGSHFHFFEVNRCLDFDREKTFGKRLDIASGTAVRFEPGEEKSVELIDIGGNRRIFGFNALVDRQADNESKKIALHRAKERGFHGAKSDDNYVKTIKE
T1 sequence (P69996 whole entry): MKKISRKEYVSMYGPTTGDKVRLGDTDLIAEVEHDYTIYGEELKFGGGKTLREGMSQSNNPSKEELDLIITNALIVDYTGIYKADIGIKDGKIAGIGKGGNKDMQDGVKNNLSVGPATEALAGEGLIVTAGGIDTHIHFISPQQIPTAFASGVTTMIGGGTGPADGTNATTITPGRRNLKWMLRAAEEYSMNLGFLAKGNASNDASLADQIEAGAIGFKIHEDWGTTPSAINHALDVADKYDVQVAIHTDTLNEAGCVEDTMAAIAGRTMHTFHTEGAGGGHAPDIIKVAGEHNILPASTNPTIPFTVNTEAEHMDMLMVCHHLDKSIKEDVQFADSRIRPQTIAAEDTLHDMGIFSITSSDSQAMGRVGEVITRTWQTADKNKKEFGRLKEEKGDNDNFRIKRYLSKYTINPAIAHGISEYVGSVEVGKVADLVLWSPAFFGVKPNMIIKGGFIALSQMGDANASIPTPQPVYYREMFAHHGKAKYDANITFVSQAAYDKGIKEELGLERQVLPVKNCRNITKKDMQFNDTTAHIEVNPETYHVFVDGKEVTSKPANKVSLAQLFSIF
T2 sequence (P07374 whole entry, looked up): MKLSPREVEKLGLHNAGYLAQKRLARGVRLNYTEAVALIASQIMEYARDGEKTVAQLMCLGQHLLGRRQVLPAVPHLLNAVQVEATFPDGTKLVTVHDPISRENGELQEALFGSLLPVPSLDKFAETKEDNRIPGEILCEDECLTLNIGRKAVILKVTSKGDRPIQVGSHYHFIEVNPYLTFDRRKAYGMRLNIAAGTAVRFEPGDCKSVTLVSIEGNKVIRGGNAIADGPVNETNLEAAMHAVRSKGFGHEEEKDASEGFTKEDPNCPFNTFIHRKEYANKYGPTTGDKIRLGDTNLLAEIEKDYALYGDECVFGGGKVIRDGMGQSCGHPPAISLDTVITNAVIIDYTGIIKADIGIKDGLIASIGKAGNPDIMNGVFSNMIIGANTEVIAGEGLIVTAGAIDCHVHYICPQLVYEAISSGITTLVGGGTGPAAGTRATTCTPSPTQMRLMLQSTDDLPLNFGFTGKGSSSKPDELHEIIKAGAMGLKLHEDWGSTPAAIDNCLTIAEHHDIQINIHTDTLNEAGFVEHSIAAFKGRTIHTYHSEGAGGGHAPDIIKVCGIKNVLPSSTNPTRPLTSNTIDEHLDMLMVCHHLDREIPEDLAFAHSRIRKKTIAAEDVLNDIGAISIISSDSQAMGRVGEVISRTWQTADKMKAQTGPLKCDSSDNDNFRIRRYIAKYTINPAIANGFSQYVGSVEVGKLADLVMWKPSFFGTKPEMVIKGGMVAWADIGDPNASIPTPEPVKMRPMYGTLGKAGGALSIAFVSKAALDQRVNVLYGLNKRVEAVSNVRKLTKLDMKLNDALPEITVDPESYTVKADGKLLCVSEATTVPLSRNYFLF

In the case of `COc1ccc2cc3[n+](cc2c1OC)CCc1cc2c(cc1-3)OCO2` [berberine], the IC50 (HPU) is given as 10.2 ± 1.1 mM, the IC50 (JBU) is given as > 13 mM and the toxicity [1] is given as “relatively more toxic”.
With `Cc1ncc([N+](=O)[O-])n1CCO` [Met, Metronidazole] the MIC (H. pylori ATCC 43504; ATCC43504, pH 5.3, 72 h) was 0.5 µg/mL (≈ 2.92 µM), the MIC (H. pylori ATCC 43504; ATCC43504, pH 7.4, 72 h) was 0.5 µg/mL (≈ 2.92 µM) and the MIC ([2]; pH 5.3, 72 h) was 2 µg/mL (≈ 11.7 µM). For the same molecule, the MIC ([2]; pH 7.4, 72 h) was 2 µg/mL (≈ 11.7 µM), the MIC (H. pylori NCTC 26695; NCTC26695, pH 5.3, 72 h) was 2 µg/mL (≈ 11.7 µM) and the MIC (H. pylori NCTC 26695; NCTC26695, pH 7.4, 72 h) was 2 µg/mL (≈ 11.7 µM). The MIC (H. pylori SS1; pH 5.3, 72 h) was 0.5 µg/mL (≈ 2.92 µM) and the MIC (H. pylori SS1; pH 7.4, 72 h) was 0.5 µg/mL (≈ 2.92 µM).
In the case of `OB(O)O` [BA, boric acid], the “Residual urease activity (percent of control)” value (H. pylori urease (HPU)) is reported as 98.6% and 98.6098% and 99.1614% and 98.0689% and the “Residual urease activity (percent of control)” value (jack bean urease (JBU)) is reported as 86.6% and 87.7694% and 84.1052% and 87.7801%.
In the case of `[F-].[Na+]` [NaF, sodium fluoride], the “Residual urease activity (percent of control)” value (H. pylori urease (HPU)) is reported as 54.6% and 54.7779% and 54.0024% and 55.0707% and the “Residual urease activity (percent of control)” value (jack bean urease (JBU)) is reported as 42.9% and 43.7771% and 43.724% and 41.2392%.
